Measurements from US20110059982A1, “AZAINDOLE COMPOUNDS FOR TREATMENT OF CENTRAL NERVOUS SYSTEM DISORDERS” (MERCK PATENT GESELLSCHAFT MIT BESCHRANKTER HAFTUNG, priority 2008, published 2011).

How the values were obtained:
Serotonin reuptake = target: T1, Serotonin reuptake (Rattus norvegicus, UniProt P31652); test: Serotonin re-uptake inhibition, synaptosomal, [3H]5-HT as tracer; format: biochemical; settings: [3H]5-HT tracer, imipramine as reference, read-out: IC50 (nmol/L), Serotonin reuptake
T1 construct: from tissue
T1 sequence (P31652 whole entry): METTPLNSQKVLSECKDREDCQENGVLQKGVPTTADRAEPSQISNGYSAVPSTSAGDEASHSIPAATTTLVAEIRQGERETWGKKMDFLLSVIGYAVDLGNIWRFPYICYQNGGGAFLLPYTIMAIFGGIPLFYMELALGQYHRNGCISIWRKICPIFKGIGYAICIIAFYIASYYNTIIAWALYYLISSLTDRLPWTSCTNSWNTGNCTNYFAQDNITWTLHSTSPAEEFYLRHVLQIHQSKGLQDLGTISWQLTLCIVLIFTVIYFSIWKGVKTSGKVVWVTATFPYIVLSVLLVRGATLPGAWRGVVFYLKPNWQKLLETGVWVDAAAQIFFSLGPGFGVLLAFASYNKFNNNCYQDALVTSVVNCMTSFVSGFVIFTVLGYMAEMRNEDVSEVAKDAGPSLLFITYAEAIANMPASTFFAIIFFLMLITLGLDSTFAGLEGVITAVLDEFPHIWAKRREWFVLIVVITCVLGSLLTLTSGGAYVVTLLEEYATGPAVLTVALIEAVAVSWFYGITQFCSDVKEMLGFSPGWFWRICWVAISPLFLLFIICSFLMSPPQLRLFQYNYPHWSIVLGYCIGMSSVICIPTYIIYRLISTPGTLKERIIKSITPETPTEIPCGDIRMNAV
Method: Serotonin re-uptake inhibition was determined by means of synaptosomal re-uptake inhibition as described by Perovic & Muller et al. (Arzneim-Forsch. Drug. Res. 1995, 45:1145-1148) with [^3H]5-HT as tracer and imipramine as reference.

Norepinephrine uptake = target: T2, Norepinephrine uptake (Rattus norvegicus, UniProt Q63380); test: Norepinephrine uptake, [3H]NE as tracer; format: biochemical; settings: [3H]NE tracer, protriptyline as reference; read-out: IC50 (nmol/L), Norepinephrine
T2 construct: from tissue
T2 sequence (Q63380 1-617): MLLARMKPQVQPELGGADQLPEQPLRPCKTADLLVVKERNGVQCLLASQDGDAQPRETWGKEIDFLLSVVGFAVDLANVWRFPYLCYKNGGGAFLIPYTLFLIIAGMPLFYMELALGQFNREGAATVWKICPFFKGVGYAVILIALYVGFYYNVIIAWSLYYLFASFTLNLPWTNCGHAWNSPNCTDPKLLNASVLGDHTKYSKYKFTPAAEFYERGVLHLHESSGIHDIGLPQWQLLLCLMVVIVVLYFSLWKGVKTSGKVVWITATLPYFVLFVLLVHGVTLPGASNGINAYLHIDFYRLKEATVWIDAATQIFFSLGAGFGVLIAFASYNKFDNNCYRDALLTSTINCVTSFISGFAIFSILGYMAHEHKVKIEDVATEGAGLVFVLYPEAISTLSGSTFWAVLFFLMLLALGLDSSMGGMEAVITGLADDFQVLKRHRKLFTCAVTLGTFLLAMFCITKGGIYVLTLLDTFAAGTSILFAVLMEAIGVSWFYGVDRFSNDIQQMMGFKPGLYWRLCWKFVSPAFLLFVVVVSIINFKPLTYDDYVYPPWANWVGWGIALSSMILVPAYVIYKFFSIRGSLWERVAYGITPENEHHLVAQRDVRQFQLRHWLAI
Method: Norepinephrine uptake was determined as described in the Perovic & Muller work with [^3H]NE as tracer and protriptyline as reference.

Dopamine uptake = target: T3, Dopamine uptake (Rattus norvegicus, UniProt P23977); test: [3H]Dopamine uptake inhibition in crude synaptosomal preparation; format: biochemical; settings: rat brain synaptosomal preparation, [3H]DA tracer, GBR12909 as reference; read-out: IC50 (nmol/L), Dopamine
T3 construct: A crude synaptosomal membrane preparation from various regions of rat brain was prepared; from tissue; host or cells: crude synaptosomal preparation from rat brain (Sprague-Dawley)
T3 sequence (P23977 whole entry): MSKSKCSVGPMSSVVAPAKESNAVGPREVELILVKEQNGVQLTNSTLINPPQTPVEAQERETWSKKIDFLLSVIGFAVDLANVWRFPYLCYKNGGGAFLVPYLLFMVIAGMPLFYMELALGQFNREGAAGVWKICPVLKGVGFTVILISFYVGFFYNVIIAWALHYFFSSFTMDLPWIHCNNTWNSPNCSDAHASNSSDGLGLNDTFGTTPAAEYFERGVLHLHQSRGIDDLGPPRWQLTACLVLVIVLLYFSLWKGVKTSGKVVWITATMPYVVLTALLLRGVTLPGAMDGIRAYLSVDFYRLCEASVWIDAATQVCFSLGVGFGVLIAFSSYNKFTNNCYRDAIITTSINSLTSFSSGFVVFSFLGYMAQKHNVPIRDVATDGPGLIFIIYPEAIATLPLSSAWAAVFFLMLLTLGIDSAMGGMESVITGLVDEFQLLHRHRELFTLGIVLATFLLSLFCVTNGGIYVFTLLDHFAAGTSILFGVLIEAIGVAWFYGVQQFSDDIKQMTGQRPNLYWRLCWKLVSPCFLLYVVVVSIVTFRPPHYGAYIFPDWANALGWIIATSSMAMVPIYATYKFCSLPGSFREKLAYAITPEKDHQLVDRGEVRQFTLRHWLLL
Method: Dopamine uptake inhibition was determined as described by Janowsky et al. (Neurochem. 1986, 46:1272-1276) with [^3H]DA as tracer and GBR12909 as reference.
[^3H]Dopamine uptake inhibition is as provided below:
Tissue preparation—A crude synaptosomal membrane preparation from various regions of rat brain was prepared as described by Berger et al. (Eur. J. Pharmacol. 1985, 107:289-290). Brain tissue from adult male Sprague-Dawley rats (150-200 g) was homogenized in 10 volumes of ice-cold sucrose (0.32 M) using a Teflon glass homogenizer, and centrifuged at 1000 g for 10 min. […] The final protein concentration was 100-200 μg protein/mL, as determined by the method of Lowry et al. (J. Biol. Chem. 1951, 193:265-275).
The uptake of [^3H]dopamine in a crude synaptosomal preparation was measured as described by Harris et al. (Life Sci. 1973, 13:303-312). […] The filters were rinsed three times with 4 mL of ice-cold buffer (Tris-HCl, 50 mM, pH 7.7, containing 120 mM NaCl) and the radioactivity remaining on the filters was measured by conventional liquid scintillation spectrometry. […]
Assay tubes contained 250 μL of the tissue preparation, 50 μL of [^3H]dopamine (40 nM) 200 μL of buffer or various uptake inhibitors, and 1.0 mL of Krebs-Ringer bicarbonate buffer (pH 7.4). […] Radioactivity remaining on the filters was measured by conventional liquid scintillation spectrometry.

5-HT1A receptor = target: T4, 5-HT1A receptor (Homo sapiens, UniProt P08908); test: 5-HT1A binding assay, [3H]8-OH-DPAT as ligand; settings: 8-OH-DPAT as reference; for IC50: read-out: IC50 (nmol/L), 5-HT1A
T4 sequence (P08908 1-422): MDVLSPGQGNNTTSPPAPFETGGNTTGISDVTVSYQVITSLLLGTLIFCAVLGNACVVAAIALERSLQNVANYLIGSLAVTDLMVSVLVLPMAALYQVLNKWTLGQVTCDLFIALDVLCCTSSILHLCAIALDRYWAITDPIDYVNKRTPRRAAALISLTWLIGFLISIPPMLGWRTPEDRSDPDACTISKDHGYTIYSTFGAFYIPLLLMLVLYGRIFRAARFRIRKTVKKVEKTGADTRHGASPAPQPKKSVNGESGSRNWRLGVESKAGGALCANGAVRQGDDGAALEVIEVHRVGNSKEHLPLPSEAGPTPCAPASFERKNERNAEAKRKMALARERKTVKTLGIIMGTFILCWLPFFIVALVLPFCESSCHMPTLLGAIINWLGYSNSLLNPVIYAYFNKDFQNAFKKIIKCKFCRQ
Method: Binding properties at the 5-HT1A receptor were determined by means of the 5-HT1A binding assay as described in the literature by Mulheron et al. (J. Biol. Chem. 1994, 269:12954-12962) with [^3H]8-OH-DPAT as ligand and 8-OH-DPAT as reference.

IC50 (Serotonin reuptake) [nmol/L]	IC50 (Norepinephrine uptake) [nmol/L]	IC50 (Dopamine uptake) [nmol/L]	Ki (5-HT1A receptor) [nM]	IC50 (5-HT1A receptor) [nmol/L]	melting point [°C]	SMILES
51 to 100	101 to 150	> 200	101 to 150	151 to 200	–	N#Cc1cnc2[nH]cc(CCCCN3CCN(c4ccc5oc(C(N)=O)cc5c4)CC3)c2c1 [Example 1, 5-{4-[4-(5-Cyano-1H-pyrrolo[2,3-b]pyridine-3-yl)-butyl]-piperazin-1-yl}-benzofuran-2-carboxylic acid amide]
> 200	151 to 200	> 200	1 to 50	51 to 100	–	N#Cc1ccc2[nH]cc(CCCCN3CCN(c4ccc5oc(C(N)=O)cc5c4)CC3)c2n1 [Example 2, 5-{4-[4-(5-Cyano-1H-pyrrolo[3,2-b]pyridine-3-yl)-butyl]-piperazin-1-yl}-benzofuran-2-carboxylic acid amide]
–	–	–	–	–	240 to 242	N#Cc1cnc2[nH]cc(CCCCN3CCC(Oc4ccc5c(c4)OCCO5)CC3)c2c1 [Example 3, 3-{4-[4-(2,3-Dihydro-benzo[1,4]dioxin-6-yloxy)-piperidin-1-yl]-butyl}-1H-pyrrolo[2,3-b]pyridine-5-carbonitrile]
